Data: patent US7094911B2, “Biphenyl and biphenyl-analogous compounds as integrin antagonists” (Bayer Aktiengesellschaft, priority 1998, dated 2006)

Key:
[1] = target: αvβ3 receptor; conditions: WO 98/00395, second value; cited from earlier work
[2] = target: T1, ανβ3 receptor (Homo sapiens, UniProt P05106+P06756); assay: Binding to the αvβ3 receptor (echistatin SPA); conditions: ανβ3 purified from human A375 cells, labelled echistatin, WGA SPA beads; read-out: avb3 IC50
T1 construct: ανβ3 from human A375 cells were purified according to a procedure described by Wong et al; endogenous in cells; host or cells: human A375 cells (receptor purified from the cells, detergent-solubilised)
T1 sequence (P06756 31-889 limits assumed): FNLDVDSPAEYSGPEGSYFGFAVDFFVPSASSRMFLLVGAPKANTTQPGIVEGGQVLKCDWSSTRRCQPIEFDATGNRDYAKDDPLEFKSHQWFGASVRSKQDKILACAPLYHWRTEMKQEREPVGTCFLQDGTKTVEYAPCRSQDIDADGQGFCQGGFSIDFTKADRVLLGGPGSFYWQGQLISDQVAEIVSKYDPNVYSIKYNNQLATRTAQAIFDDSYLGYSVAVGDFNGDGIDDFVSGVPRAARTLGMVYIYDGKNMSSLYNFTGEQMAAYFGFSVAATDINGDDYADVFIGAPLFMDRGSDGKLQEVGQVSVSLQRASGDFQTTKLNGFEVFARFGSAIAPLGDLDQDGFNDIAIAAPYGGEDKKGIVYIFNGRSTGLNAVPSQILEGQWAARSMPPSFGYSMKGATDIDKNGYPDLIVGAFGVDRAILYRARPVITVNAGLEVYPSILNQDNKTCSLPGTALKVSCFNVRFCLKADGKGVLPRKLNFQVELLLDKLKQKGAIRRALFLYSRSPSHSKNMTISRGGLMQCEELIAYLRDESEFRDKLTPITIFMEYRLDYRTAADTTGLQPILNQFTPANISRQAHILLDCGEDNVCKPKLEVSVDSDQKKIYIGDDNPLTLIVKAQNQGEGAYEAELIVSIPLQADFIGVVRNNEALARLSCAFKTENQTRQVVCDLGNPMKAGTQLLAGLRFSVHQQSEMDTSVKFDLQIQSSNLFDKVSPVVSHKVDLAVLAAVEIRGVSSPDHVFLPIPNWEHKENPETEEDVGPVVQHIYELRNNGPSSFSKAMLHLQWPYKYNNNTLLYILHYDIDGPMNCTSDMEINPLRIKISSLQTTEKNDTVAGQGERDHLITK
T1 sequence (P06756 891-1048 partner limits assumed): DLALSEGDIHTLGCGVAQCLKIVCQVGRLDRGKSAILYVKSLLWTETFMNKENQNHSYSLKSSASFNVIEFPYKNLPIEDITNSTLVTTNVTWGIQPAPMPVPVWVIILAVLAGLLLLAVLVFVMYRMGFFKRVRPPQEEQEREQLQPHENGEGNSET
T1 sequence (P05106 27-788): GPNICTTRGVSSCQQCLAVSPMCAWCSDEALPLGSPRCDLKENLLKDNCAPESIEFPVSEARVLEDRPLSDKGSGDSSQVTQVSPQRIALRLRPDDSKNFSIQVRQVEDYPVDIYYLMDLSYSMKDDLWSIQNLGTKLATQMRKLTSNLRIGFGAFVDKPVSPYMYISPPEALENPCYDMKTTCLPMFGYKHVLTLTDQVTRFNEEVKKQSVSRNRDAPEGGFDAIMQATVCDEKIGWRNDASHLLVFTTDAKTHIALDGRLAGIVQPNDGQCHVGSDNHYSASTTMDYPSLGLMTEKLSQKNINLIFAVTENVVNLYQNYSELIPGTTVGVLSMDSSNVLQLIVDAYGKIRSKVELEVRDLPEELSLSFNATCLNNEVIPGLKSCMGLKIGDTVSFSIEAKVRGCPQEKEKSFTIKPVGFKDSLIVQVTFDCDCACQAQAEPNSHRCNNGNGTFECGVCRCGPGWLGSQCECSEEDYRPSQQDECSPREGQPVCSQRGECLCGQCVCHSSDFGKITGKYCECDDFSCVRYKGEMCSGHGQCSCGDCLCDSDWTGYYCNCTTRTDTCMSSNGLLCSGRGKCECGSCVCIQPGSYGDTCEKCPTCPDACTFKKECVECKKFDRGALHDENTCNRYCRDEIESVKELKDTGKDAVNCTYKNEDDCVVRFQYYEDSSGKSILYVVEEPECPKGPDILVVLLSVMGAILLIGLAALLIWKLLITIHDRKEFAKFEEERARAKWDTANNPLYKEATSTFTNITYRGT
Experimental: Biological Investigations a) Binding to the ανβ3 Receptor
10 μl ανβ3 (5 ng) in TBS pH 7.6, 2 mM CaCl2, 1 mM MgCl2, 1% n/octylglucopyranoside; 10 μl of the substance to be tested in TBS pH 7.6, 0.1% dimethylsulfoxide (DMSO), and 45 μl TBS pH 7.6, 2 mM CaCl2, 1 MM MgCl2, 1 mM MnCl2 were each incubated for 1 h at room temperature.

[3] = test system: smooth muscle cells; assay: Smooth muscle cell (SMC) migration test; assay type: cell-based, humans or rats; conditions: horizontal migration on vitronectin-coated plates, 24 hours; human or rat cells not specified
Experimental: b) Smooth Muscle Cell (SMC) Migration Test
Smooth muscle cells from humans or rats were used. The migration of the cells was determined in a horizontal measuring arrangement (Falcon).
The horizontal migration was determined in 6-well plates coated with vitronectin (1 μg/cm^2). The cells were suspended in a medium (DMEM:F12/0, 12% BSA-rat smooth muscle cells or MCDB 131 with 0.2% BSA-human smooth muscle cells), inoculated and allowed to grow to confluence. Half of the smooth muscle cell lawn was then scraped off, and the cells were treated with different concentrations of the test compounds. The mixtures were incubated for 24 hours at 37° C. in the presence of 5% CO2 After the incubation, the smooth muscle cell migration was determined by measurement of the migration distance and the cell density of the migrated cells.

Row | SMILES | melting point [°C] | also measured
1 | CC1(C)C2CCC1(CS(=O)(=O)NC(Cc1ccc(OCCCC(=O)NC(=N)N)cc1)C(=O)O)C(=O)C2 (stereo not drawn) [(I)] | – | IC50 [1]: 0.16 nM
2 | CC1(C)[C@@H]2CC[C@@]1(CS(=O)(=O)N[C@@H](Cc1ccc(-c3cccc(NC(=O)Nc4cccnc4)c3)cc1)C(=O)O)C(=O)C2 [Example 1.73, (2S)-3-[3′-(3-Pyridin-3-yl-ureido)-biphenyl-4-yl]-2-[(S)-campher-10-yl-sulfonylamino]-propanoic acid] | – | IC50 [2]: 2 nM; IC50 [3]: 3 to 40 nM
3 | CC1(C)C2CC[C@@]1(CS(=O)(=O)N[C@@H](Cc1ccc(-c3cccc(Nc4ncccc4[N+](=O)[O-])c3)cc1)C(=O)O)C(=O)C2 [Example 20.3] | 207 | –

Second part, led by results:

Row | melting point [°C] | SMILES | also measured
4 | > 240 | COc1ccc(-c2cccc(Nc3ncccc3N)c2)cc1S(=O)(=O)NC(CC(=O)O)c1ccccc1 (stereo not drawn) [Example 20.4] | –
5 | > 240 | COc1ccc(-c2cccc(Nc3ccccn3)c2)cc1S(=O)(=O)NC(CC(=O)O)c1ccccc1 (stereo not drawn) [Example 20.5] | –
